Target: epidermal growth factor receptor (EGFR) (Homo sapiens, UniProt P00533)
Test: ADP-Glo EGFR kinase inhibition assay (Promega V9261), eight concentrations
Assay type: biochemical

Sequence of epidermal growth factor receptor (EGFR) (P00533 25-1210): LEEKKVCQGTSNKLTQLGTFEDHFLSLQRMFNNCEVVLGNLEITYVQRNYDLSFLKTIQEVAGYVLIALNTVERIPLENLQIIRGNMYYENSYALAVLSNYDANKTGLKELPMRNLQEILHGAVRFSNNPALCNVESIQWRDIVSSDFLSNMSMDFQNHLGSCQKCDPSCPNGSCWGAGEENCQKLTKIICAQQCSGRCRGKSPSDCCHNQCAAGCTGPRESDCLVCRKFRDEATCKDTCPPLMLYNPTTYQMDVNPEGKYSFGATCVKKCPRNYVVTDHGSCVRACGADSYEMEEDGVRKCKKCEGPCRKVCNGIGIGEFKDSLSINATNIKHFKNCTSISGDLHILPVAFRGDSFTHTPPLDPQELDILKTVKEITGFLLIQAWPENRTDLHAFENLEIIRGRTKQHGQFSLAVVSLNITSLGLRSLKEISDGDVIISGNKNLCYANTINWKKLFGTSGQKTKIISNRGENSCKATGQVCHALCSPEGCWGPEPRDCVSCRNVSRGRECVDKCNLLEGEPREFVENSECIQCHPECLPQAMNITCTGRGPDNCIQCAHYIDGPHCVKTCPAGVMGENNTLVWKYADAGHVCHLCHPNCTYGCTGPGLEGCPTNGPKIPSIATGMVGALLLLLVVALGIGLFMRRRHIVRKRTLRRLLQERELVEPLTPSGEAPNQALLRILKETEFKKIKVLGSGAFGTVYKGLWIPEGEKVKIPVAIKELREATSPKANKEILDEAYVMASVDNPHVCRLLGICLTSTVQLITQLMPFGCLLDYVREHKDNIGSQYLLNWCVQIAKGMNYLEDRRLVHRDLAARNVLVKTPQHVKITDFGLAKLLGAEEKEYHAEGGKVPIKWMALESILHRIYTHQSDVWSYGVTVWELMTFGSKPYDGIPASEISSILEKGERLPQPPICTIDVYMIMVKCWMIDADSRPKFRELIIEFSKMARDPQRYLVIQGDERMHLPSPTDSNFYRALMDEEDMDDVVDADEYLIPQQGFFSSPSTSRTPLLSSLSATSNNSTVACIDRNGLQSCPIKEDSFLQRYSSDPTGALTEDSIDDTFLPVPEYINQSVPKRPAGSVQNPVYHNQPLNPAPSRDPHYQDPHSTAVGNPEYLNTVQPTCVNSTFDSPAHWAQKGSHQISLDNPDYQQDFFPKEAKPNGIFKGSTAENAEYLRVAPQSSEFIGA

IC50 [nM]	SMILES
80.3	COc1cc(C[C@@H](CO)[C@H](CO)Cc2ccc(O)c(OC)c2)ccc1O [Secoisolariciresinol]
76.2	O=C1C[C@@H](c2ccc(O)c(O)c2)Oc2cc(O)cc(O)c21 [(+) Eriodictyol]

Reference: article PMC9268025, “GC-MS/MS Quantification of EGFR Inhibitors, β-Sitosterol, Betulinic Acid, (+) Eriodictyol, (+) Epipinoresinol, and Secoisolariciresinol, in Crude Extract and Ethyl Acetate Fraction of Thonningia sanguinea” (Molecules, 2022)
